The source of these data is patent US20220251079A1, “BENZO[B][1,8]NAPHTHYRIDINE ACETIC ACID DERIVATIVES AND METHODS OF USE” (STINGTHERA, INC., priority 2019, published 2022).

Usually IC50 stands for the concentration that inhibits the measured activity by half.

Some results are limits rather than exact numbers.

Test [1] addresses T1, human STING protein (140-379) (Homo sapiens, UniProt Q86WV6, H232R).
T1 construct: 6XHIS-SUMO-hSTING (140-379); made in house; host or cells: BL-21(DE3) E. coli, pET vector
Briefly: Radiometric filtration binding competition assay (WT_FBA_HIS-SUMO-hSWAT). Conditions: read-out: WT-hSWAT IC50. As to the method: A radiometric filtration binding competition assay was performed to quantify the binding affinity of compounds of the present application for the human or mouse STING protein, or associated HAQ human isoform. The competition format filtration binding assay detects the ability of small molecule compounds from binding to and inhibiting the subsequent binding of a tritiated [H3] […] The resulting dose response was fit by non-linear regression to determine an IC50 value, from which a Ki value for each compound was extrapolated.
Briefly, the recombinant C-terminal ligand binding domain of the human STING protein (140-379) or mouse STING protein (139-328) [0.5 μM] was incubated in the presence of a compound of the present application (8 point, 2 fold dilution starting at 300 μM) for 30 min or under control conditions. […] The resulting complexes were then filtered, dried, and scintillation fluid was added and the remaining radio signal was measured to determine the degree of compound ligand inhibition. This assay format was optimized for both the WT and HAQ isoforms of the human protein and the mouse orthologue protein.
Parameters optimized: • a. Form of protein: 6×HIS-SUMO tag or untagged • b. Concentration of target protein: Minimum concentration that achieved >80 max signal • c. Assay DMSO concentration: 10%-0.1% • d. Assay Buffer: Base (Tris or phosphate), Salt concentration, +/−Tween (0.1-2%) • e. […] Probe Concentration: Minimum concentration that achieved max assay window • g. Assay Format: Scintillation Proximity Bead or Filtration Binding Plate • h. Assay Plate: 384 vs 96 well format • i. Assay incubation times for successive incubation steps
WT-hSWAT: WT_FBA_HIS-SUMO-hSWAT IC50 (μM) (“WT”=Wild-type); and WT-mSWAT: MOUSE_FBA_HIS-SUMO-mSWAT C50 (μM) which is the mouse isoform of STING protein.

The next test has as its target T2, STING protein (Homo sapiens, UniProt Q86WV6, H232R).
T2 construct: host or cells: THP-1 dual reporter cells, TMEM173 modified from HAQ to R232 (THP1-dual-KI R232)
In words: Cell based reporter assay of IRF activation (THP1-dual-KI R232, IRF luciferase). The note with it: THP-1; read-out: THP1-dual-KI R232_IRF(Luciferase)_Activity Maximum measured (%). The source says: Cell reporter assays were developed to measure the ability of compounds of the application to activate the STING protein and activate both IRF/IFN and the NFkB signaling pathways in the myeloid derived cell line THP-1, which is commercially available from several suppliers. Briefly, THP-1 monocytes were transfected and selected for stable integration of 2 reporter constructs. Clones incorporating stably integrated vectors were further selected by antibiotic resistance to blastocidin and zeocin. The reporter constructs included: (1) firefly luciferase reporter gene under the control of an ISG54 promoter fused to five interferon (IFN)-stimulated response elements to measure IRF transcription factor binding activity and (2) secreted embryonic alkaline phosphatase reporter gene under transcription control of an IFN-beta minimal promoter fused to 5 copies of the NFkB consensus transcriptional response element and 3 copies of the c-Rel binding site.
The resulting THP-1 cell line was further modified to incorporate 3 amino acid point mutations (H71R A230G Q293R). This modification of the native TMEM173 gene in THP-1 cells (HAQ) was designed to produce a cell reporter that expressed the most common allelic variant in the human population (THP-1 R232, available from InvivoGen). Alternatively, the TMEM173 gene was knocked out to provide a congenic control to counter-screen for compound activation that was independent of the STING protein (THP-1 STING KO).
Once cell lines were established, reporter assay protocols were developed and optimized to screen small molecule compounds for agonist activity. Assay optimization for efficacy and Z′ value included titration of the following parameters:
1. No pre-activation with PMA
2. […]cells/well in 96 well plate format
7. Cell Titer Glo reagent (Promega) following supermatant removal
9. 8 point, 2 fold, duplicate starting at 150 μM PP28T

In the next test the target is T3, hSTING-R232 (Homo sapiens, UniProt Q86WV6, H232R).
T3 construct: recombinant mouse or human STING protein (aa140-379); 6xHis-SUMO elsewhere) (cleaved yes); made in house
Briefly: STING Differential Scanning Fluorimetry (DSF) assay, human. In kind it is binding. Conditions: human STING R232-WT, 5 μM protein. As to the method: A STING DSF assay was performed to determine protein thermostability shift in response to small molecule ligand binding. A STING thermostability shift assay based on differential scanning fluorimetry was used to measure (1) the net shift in melting temperature (ΔTm)between the apo and ligand-bound states of the STING protein and (2) the concentration of the thermal denaturation transition (FC50) as a surrogate measure of binding affinity (Kd). Briefly, recombinant mouse or human STING protein (aa140-379) comprising the C-terminal binding domain (R232-WT) were purified by affinity chromatography and further processed to remove the purification tag, followed by gel filtration to achieve purity >95%. Protein in assay buffer was transferred to a 384 well plate and incubated with the hydrophobic fluorescent dye SYBR Orange. A temperature ramp was applied to the plate and the resulting dye fluorescence was plotted as a function of temperature. The first derivative of this function (dF/dT) was then used to extrapolate the melting temperature of the protein at various concentrations of compound and determine the thermal denaturation profile of a protein/compound complex.
2. 5 μM purified Target STING Protein
4. Buffer: 100 mM NaCl, 30 mM HEPES, pH 7.5
5. Thermal Ramp: 0.5° C./min
7. 11 point, 2 fold dilution, duplicate, 300 μM high concentrations
A general note: Differential scanning fluorimetry follows unfolding on heating by fluorescence.

T2 sequence (Q86WV6 whole entry H232R): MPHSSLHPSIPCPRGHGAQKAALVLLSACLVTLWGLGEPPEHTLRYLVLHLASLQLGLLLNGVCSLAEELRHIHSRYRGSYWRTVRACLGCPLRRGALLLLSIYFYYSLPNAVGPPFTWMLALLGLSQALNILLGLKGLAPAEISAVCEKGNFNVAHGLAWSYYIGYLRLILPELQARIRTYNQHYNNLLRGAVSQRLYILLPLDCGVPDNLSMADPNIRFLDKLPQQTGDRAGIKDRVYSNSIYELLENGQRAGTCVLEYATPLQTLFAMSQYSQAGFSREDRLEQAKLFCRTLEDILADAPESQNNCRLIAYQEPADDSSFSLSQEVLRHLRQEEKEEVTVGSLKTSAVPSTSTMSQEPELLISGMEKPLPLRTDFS
T3 sequence (Q86WV6 140-379 H232R): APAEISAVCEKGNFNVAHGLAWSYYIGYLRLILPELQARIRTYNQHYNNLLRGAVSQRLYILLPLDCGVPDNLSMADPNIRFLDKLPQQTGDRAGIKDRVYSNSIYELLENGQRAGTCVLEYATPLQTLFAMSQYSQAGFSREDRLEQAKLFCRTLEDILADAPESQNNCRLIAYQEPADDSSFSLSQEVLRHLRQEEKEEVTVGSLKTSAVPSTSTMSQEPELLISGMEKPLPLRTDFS
T1 sequence (Q86WV6 140-379 H232R): as above

For `CCOc1c(Cl)ccc2c(=O)c3ccc(NCC4CCOCC4)nc3n(CC(=O)O)c12` [Compound 60, sodium 2-(8-chloro-9-ethoxy-5-oxo-2-(((tetrahydro-2H-pyran-4-yl)methyl)amino)benzo[b][1,8]naphthyridin-10(5H)-yl)acetate], the IC50 in test [1] was 20 to 100 µM. Also, the Emax at STING protein was above 50%. Moreover, at hSTING-R232, the “WT_DSF_hSWAT Tm Shift (° C.)” value is “D (“D” > 7° C.)”.
Regarding `CN(C)c1c(Cl)ccc2c(=O)c3ccc(N(C)CC4CC(F)(F)C4)nc3n(CC(=O)O)c12` [Compound 26, sodium 2-(8-chloro-2-(((3,3-difluorocyclobutyl)methyl) (methyl)amino)-9-(dimethylamino)-5-oxobenzo[b][1,8]naphthyridin-10(5H)-yl)acetate], in test [1], the IC50 was below 20 µM. Besides, the Emax at STING protein is above 50%. Moreover, the “WT_DSF_hSWAT Tm Shift (° C.)” value on hSTING-R232 is given as “D (“D” > 7° C.)”.
The matching figures for `CSc1c(Cl)ccc2c(=O)c3ccc(N(CC4CC4)C4CC(OC(F)F)C4)nc3n(CC(=O)O)c12` (stereo not drawn) [Compound 46, sodium 2-(8-chloro-2-((cyclopropylmethyl)(3-(difluoromethoxy)cyclobutyl)amino)-9-(methylthio)-5-oxobenzo[b][1,8]naphthyridin-10(5H)-yl)acetate]: below 20 µM, above 50% and “D (“D” > 7° C.)”.
The matching figures for `CSc1c(Cl)ccc2c(=O)c3ccc(N(C)c4ccccc4)nc3n(CC(=O)O)c12` [Compound 73, sodium 2-(8-chloro-2-(methyl(phenyl)amino)-9-(methylthio)-5-oxobenzo[b][1,8]naphthyridin-10(5H)-yl)acetate]: below 20 µM, above 50% and “D (“D” > 7° C.)”.
For `CSc1c(Cl)ccc2c(=O)c3ccc(NC4CC(C#N)C4)nc3n(CC(=O)O)c12` (stereo not drawn) [Compound 56, sodium 2-(8-chloro-2-((3-cyanocyclobutyl)amino)-9-(methylthio)-5-oxobenzo[b][1,8]naphthyridin-10(5H)-yl)acetate], in test [1], the IC50 was below 20 µM. For the same compound, at STING protein, the Emax is above 50%. Also, on hSTING-R232, the “WT_DSF_hSWAT Tm Shift (° C.)” value is on record as “D (“D” > 7° C.)”.
The matching figures for `CSc1c(Cl)ccc2c(=O)c3ccc(C=C4COC4)nc3n(CC(=O)O)c12` [Compound 65, 2-(8-chloro-9-(methylthio)-2-(oxetan-3-ylidenemethyl)-5-oxobenzo[b][1,8]naphthyridin-10(5H)-yl)acetic acid]: 20 to 100 µM, above 50% and “D (“D” > 7° C.)”.
The matching figures for `CSc1c(Cl)ccc2c(=O)c3ccc(N(C)CCn4ccnc4)nc3n(CC(=O)O)c12` [Compound 71, Sodium 2-(8-chloro-2-{[2-(imidazole-1-yl)ethyl](methyl)amino}-9-(methylsulfanyl)-5-oxobenzo[b]1,8-naphthyridin-10-yl)acetate]: 20 to 100 µM, 5 to 25% and “D (“D” > 7° C.)”.
In the case of `CSc1c(C)ccc2c(=O)c3ccc(N(C)C)nc3n(CC(=O)O)c12` [Compound 62, sodium 2-(2-(dimethylamino)-8-methyl-9-(methylthio)-5-oxobenzo[b][1,8]naphthyridin-10(5H)-yl)acetate], the IC50 in test [1] lay within 20 to 100 µM. Besides, the Emax at STING protein was above 50%. In addition, at hSTING-R232, the “WT_DSF_hSWAT Tm Shift (° C.)” value is listed as “D (“D” > 7° C.)”.
The matching figures for `Cc1ccc2c(=O)c3ccc(N(C)C)nc3n(CC(=O)O)c2c1N(C)C` [Compound 61, sodium 2-(2,9-bis(dimethylamino)-8-methyl-5-oxobenzo[b][1,8]naphthyridin-10(5H)-yl)acetate]: 20 to 100 µM, above 50% and “D (“D” > 7° C.)”.
As to `CSc1c(Cl)ccc2c(=O)c3ccc(NCC4COC4)nc3n(CC(=O)O)c12` [Compound 55, sodium 2-(8-chloro-9-(methylthio)-2-((oxetan-3-ylmethyl)amino)-5-oxobenzo[b][1,8]naphthyridin-10(5H)-yl)acetate], the half-inhibitory concentration (IC50) in test [1] lay in the range of 20 to 100 µM. Moreover, the Emax at STING protein was above 50%. Moreover, the “WT_DSF_hSWAT Tm Shift (° C.)” value on hSTING-R232 is reported as “D (“D” > 7° C.)”.
